# Measured values as given in patent publication US5371102A, “Compositions and methods of inhibiting thyroid activity” (priority 1993, dated 1994).
# Entries after “also recorded” stand apart in the source; their conditions may differ. Where two headings read alike, the source gives them in different places.
# Experiments:
# LPX and TPX [1] = experiment: suicide inhibition of peroxidases (summary statements); assay type: biochemical; conditions: for suicide inhibition: summary of own examples
# TPX [2] = target: T1, TPX (Sus scrofa, UniProt P09933); experiment: TPX-catalyzed iodide oxidation (triiodide formation), spectrophotometric; assay type: biochemical, hog; conditions: TPX, H2O2 and I-
# T1 sequence (P09933 15-926): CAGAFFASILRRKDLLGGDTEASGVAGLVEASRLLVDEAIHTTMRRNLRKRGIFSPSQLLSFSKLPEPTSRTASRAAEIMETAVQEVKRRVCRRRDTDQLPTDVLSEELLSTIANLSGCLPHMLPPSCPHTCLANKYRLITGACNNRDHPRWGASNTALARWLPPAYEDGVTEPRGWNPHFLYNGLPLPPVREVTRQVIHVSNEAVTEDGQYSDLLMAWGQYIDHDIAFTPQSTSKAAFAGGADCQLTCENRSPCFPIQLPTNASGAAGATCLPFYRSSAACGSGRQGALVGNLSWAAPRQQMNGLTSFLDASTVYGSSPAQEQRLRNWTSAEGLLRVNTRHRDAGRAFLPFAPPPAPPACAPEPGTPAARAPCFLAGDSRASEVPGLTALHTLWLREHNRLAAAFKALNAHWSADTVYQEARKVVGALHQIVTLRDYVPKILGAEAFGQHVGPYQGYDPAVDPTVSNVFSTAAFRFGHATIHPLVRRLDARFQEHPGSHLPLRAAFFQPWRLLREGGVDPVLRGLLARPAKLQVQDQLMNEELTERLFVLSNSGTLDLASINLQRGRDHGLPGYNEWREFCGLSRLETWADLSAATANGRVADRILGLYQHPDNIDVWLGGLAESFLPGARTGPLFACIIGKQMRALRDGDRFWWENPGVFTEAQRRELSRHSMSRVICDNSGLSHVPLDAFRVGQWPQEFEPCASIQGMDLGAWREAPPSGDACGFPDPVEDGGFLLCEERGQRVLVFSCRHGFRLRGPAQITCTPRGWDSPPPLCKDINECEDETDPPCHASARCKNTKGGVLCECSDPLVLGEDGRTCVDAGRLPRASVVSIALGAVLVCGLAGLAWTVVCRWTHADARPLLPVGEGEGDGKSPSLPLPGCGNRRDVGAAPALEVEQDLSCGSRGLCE
# Description: (§1) Materials used in the examples below were obtained from the following sources. Bovine LPX, bovine liver catalase, glucose oxidase, 30% hydrogen peroxide, glucose, guaiacol, ABTS and deuterium oxide were purchased from Sigma Chemical Company. Selenium dioxide, MBI ^13 CH3 I and PBA were purchased from Aldrich Chemical Company and PBA was purified as previously described by Fieset et al., Reagents for Organic Synthesis, Vol. I, pp.135-139, John Wiley and Sons, N.Y. (1967). LPX purity was checked by PAGE, as described by Doerge, D.R., et al. in, Biochem. Pharmacol., Vol.36, pp.972-974 (1986). TPX was purified from hog thyroids obtained from a local slaughterhouse by published procedures. Doerge & Takazowa, Chemical Research in Toxicology, Vol. 3, pp. 98-101 (1990). TPX purity was determined by LC and its concentration determined spectophotometrically. Hydroperoxide concentrations were determined by iodometric titration, as described by Kolthoff, et al., in "Quantitative Chemical Analysis", Macmillan, London, pp.842-860 (1969). MMBI, and BI were synthesized by published procedures as described by Doerge, D.R., Biochem, Vol. 27, pp. 3697-3700 (1988) and were recrystallized from aqueous ethanol. MeBI was purified by distillation and DMeBI^+ was synthesized and purified by recrystallization from ethyl acetate/methanol. 1-^13 C-MMBI was synthesized from ^13 CH3 I according to the procedure disclosed by Doerge, D.R., in, J. Lab. Comp. and Radiopharm., Vol.25, pp.985-990 (1988). PPHP and PPA were prepared, purified and analyzed as previously described by Doerge, Biochem, Vol.27, p.11 (1988). The methyl ester of 1-methyl-benzimidazole-2-sulfinic acid was prepared by addition of hydrogen peroxide (5 equivalents of a 10 M solution) to MMBI (0.1 M) in methanol. The products, MeBI and the ester, were obtained following preparative TLC on silica (Uniplate, Analtech Co., Newark, DL) using 5% methanol/chloroform as eluant. […]
# 1,3-diacetyl MBI (AczMBI) was synthesized according to the method published by Doerge et al., Syn. […] Varying quantities of Ac2 MBI were incubated with TPX, H2 O2, and I^-. […]
# TPX [3] = conditions: cited from earlier work
# LPX [4] = conditions: cited from earlier work
# [5] = thione reaction with PBA in aqueous buffered methanol, product ratios; assay type: physicochemical; conditions: thione 100 μM, PBA 0-200 μM
# Protocol: (§2) Oxidation stoichiometries were determined spectrophoto, metrically, using a Hewlett Packard 8452A diode array spectrophotometer, by measuring thione concentration at 305 nm as a function of PBA concentration. Hydroperoxide content was determined iodometrically. Stoichiometries of substrate consumption/product formation were also determined by addition of limiting amounts of PBA to 100 μM MBI or MMBI in 50% methanol/pH 7 phosphate. The disappearance of thione and the production of BI, MeBI and bisulfite ion was determined after one hour at 25° C. The production of bisulfite ion was measured […]. The production of sulfate ion was determined by ion chromatography using a AS4A column (Dionex Co., Sunnyvale, CA) with a Dionex Gradient Pump Module and a Dionex CDM II conductivity detector equipped with an AMMS suppressor using 3 mM carbonate/bicarbonate buffer pH 10 as eluant at 2.0 ml/min. Reaction products were also monitored by ^1 H NMR performed at 300 MHz using a Nicolet NT300 or General Electric QE300 spectrometer DSS as a reference.
# The reaction of MBI and MMBI with PBA was also examined in aqueous buffered methanol. Thione (100 μM) was incubated with varying concentrations of PBA (0-200 μM). Reactant and product quantities were determined by LC as described in example 1. The ratios of product formation to thione consumption were calculated, and are reported below in Table 1. The values are averages of two slope determinations, i.e., moles of product formed or reactant consumed vs. moles of oxidant added, each determined from at least five data points.
# [6] = kinetics of thione oxygenation by hydrogen peroxide/TFA; assay type: physicochemical; conditions: thione 25 μM, H2O2 34 mM, TFA 163 mM in methanol, 25° C.; relative to DMMBI
# Protocol: The kinetics of thione oxygenation were determined for MBI, MMBI and DMMBI. Oxygenation by hydrogen peroxide/TFA was measured spectrophotometrically (305 nm) at 25° C. by addition of thione (final concentration 25 μM) to hydrogen peroxide (34 mM) and TFA (163 mM) in methanol.
# TPX [7] = target: T1, TPX; experiment: TPX inactivation; assay type: biochemical, hog; conditions: presence of hydrogen peroxide
# Description: (§3) Materials used in the examples below were obtained from the following sources. Bovine LPX, bovine liver catalase, glucose oxidase, 30% hydrogen peroxide, glucose, guaiacol, ABTS and deuterium oxide were purchased from Sigma Chemical Company. Selenium dioxide, MBI ^13 CH3 I and PBA were purchased from Aldrich Chemical Company and PBA was purified as previously described by Fieset et al., Reagents for Organic Synthesis, Vol. I, pp.135-139, John Wiley and Sons, N.Y. (1967). LPX purity was checked by PAGE, as described by Doerge, D.R., et al. in, Biochem. Pharmacol., Vol.36, pp.972-974 (1986). TPX was purified from hog thyroids obtained from a local slaughterhouse by published procedures. Doerge & Takazowa, Chemical Research in Toxicology, Vol. 3, pp. 98-101 (1990). TPX purity was determined by LC and its concentration determined spectophotometrically. Hydroperoxide concentrations were determined by iodometric titration, as described by Kolthoff, et al., in "Quantitative Chemical Analysis", Macmillan, London, pp.842-860 (1969). MMBI, and BI were synthesized by published procedures as described by Doerge, D.R., Biochem, Vol. 27, pp. 3697-3700 (1988) and were recrystallized from aqueous ethanol. MeBI was purified by distillation and DMeBI^+ was synthesized and purified by recrystallization from ethyl acetate/methanol. 1-^13 C-MMBI was synthesized from ^13 CH3 I according to the procedure disclosed by Doerge, D.R., in, J. Lab. Comp. and Radiopharm., Vol.25, pp.985-990 (1988). PPHP and PPA were prepared, purified and analyzed as previously described by Doerge, Biochem, Vol.27, p.11 (1988). The methyl ester of 1-methyl-benzimidazole-2-sulfinic acid was prepared by addition of hydrogen peroxide (5 equivalents of a 10 M solution) to MMBI (0.1 M) in methanol. The products, MeBI and the ester, were obtained following preparative TLC on silica (Uniplate, Analtech Co., Newark, DL) using 5% methanol/chloroform as eluant.
# DMMBI was synthesized according to a published method. Duffin et al., J. Chem. Soc., Part II, pp.364-365 (1956). Samples including TPX, H2 O2, and I^- were incubated with and without DMMBI. Triiodide formation was observed spectrophotometrically with respect to time.
# LPX [8] = target: T2, LPX (Bos taurus, UniProt P80025); experiment: LPX suicide inactivation kinetics; assay type: biochemical, bovine
# T2 construct: purchased Sigma Chemical Company
# Description: as §3
# Inhibition of LPX activity by thiones was determined from the kinetics of iodide ion, guaiacol or ABTS oxidation assays conducted at 25° C. Kinetic parameters of suicide inactivation were determined as previously described. Doerge, Biochem. Vol.27, pp.3697-3700 (1988).
# TPX [9] = target: T1, TPX; experiment: covalent binding to TPX in the presence of H2O2; design: species or system hog
# Description: as §1, with “MeBI was purified by distillation and DMeBI^+ was synthesized and purified by recrystallization from ethyl acetate/methanol. 1-^13 C-MMBI was synthesized from ^13 CH3 I according to the procedure disclosed by Doerge, D.R., in, J. Lab. Comp. and Radiopharm., Vol.25, pp.985-990 (1988).” left out, “(1988).” for “(1988). The methyl ester of 1-methyl-benzimidazole-2-sulfinic acid was prepared by addition of hydrogen peroxide (5 equivalents of a 10 M solution) to MMBI (0.1 M) in methanol. The products, MeBI and the ester, were obtained following preparative TLC on silica (Uniplate, Analtech Co., Newark, DL) using 5% methanol/chloroform as eluant.”
# [10] = chemical oxidation stoichiometry of thiones; assay type: physicochemical; conditions: for moles of oxidant required for total reaction: PBA, FIG. 4
# Protocol: Oxidation stoichiometries were determined for the thione compounds MBI, MMBI and DMMBI by incubating the thiones with varying amounts of PBA (0-250μM). The rapid reaction (t1/2 <10 s at 25° C.) of benzimidazole-2-thiones with PBA in methanol provided a convenient method for determining oxidation stoichiometry.
# as §2
# LPX [11] = target: T2, LPX; experiment: LPX-mediated covalent binding of labelled thiocarbamides to LPX; design: species or system bovine; conditions: +H2O2 vs. +H2O2 +KI; 14C- and 35S-labelled
# Description: as §3
# LPX-mediated covalent binding of ^14 C- and ^35 S-labelled thiocarbamides to LPX under iodide-dependent and -independent conditions was measured.
# LPX and TPX [12] = conditions: currently used drugs, background; cited from earlier work
# [13] = cited from earlier work
structure (smiles),measurement,setting,value
"CC(=O)n1c(=S)n(C(C)=O)c2ccccc21 [Ac2 MBI, 1,3-diacetylbenzimidazole-2-thione]",selectivity for iodide ion oxidation,LPX and TPX [1]; alternate substrate mechanism,block only reactions involving iodide ion oxidation
same,suicide inhibition,LPX and TPX [1],not suicide inhibitors
same,effect on triiodide formation,TPX [2],exhibits similar inhibition of triiodide formation as was observed with DMMBI
"S=C1NCCN1 [ETU, imidazolidine-2-thione]",inhibition of TPX-catalyzed iodination,TPX [3],inhibits TPX- and LPX-catalyzed iodination reactions
same,inhibition of LPX-catalyzed iodination,LPX [4],inhibits TPX- and LPX-catalyzed iodination reactions
"Sc1nc2ccccc2[nH]1 [MBI, benzimidazole-2-thione]",PBA/thione,[5],1.89
same,benzimidazole/thione,[5],0.89
same,bisulfite/thione,[5],0.72
same,suicide inhibition,LPX and TPX [1],suicide inhibitors
same,relative rate of oxygenation,[6],2.3
same,TPX inactivation,TPX [7],"rapid, irreversible loss of LPX and TPX activity; also recorded: cause rapid, irreversible enzyme inactivation"
same,partition ratio (LPX inactivation),LPX [8]; 25° C.,approximately 3
same,LPX inactivation / loss of LPX activity,LPX [8]; presence of hydrogen peroxide,"rapid, irreversible loss of LPX and TPX activity; also recorded: cause rapid, irreversible enzyme inactivation"
same,KI (inactivation),LPX [8]; read-out: Ki (LPX inactivation); 25° C.,0.0001 µM
same,covalent binding to TPX,TPX [9],bind covalently to LPX and TPX
same,moles of oxidant required for total reaction,[10],two
same,covalent binding to LPX,LPX [11],become covalently bound to LPX
"Cn1c(S)nc2ccccc21 [MMBI, 1-methylbenzimidazole-2-thione]",PBA/thione,[5],1.98
same,benzimidazole/thione,[5],0.87
same,bisulfite/thione,[5],0.72
same,suicide inhibition,LPX and TPX [1],suicide inhibitors
same,relative rate of oxygenation,[6],1.3
same,TPX inactivation,TPX [7],"rapid, irreversible loss of LPX and TPX activity; also recorded: cause rapid, irreversible enzyme inactivation"
same,partition ratio (LPX inactivation),LPX [8]; 25° C.,~35
same,KI (inactivation),LPX [8]; 25° C.; read-out: Ki (LPX inactivation),0.274 µM
same,LPX inactivation / loss of LPX activity,LPX [8]; presence of hydrogen peroxide,"rapid, irreversible loss of LPX and TPX activity; also recorded: cause rapid, irreversible enzyme inactivation"
same,covalent binding to TPX,TPX [9],bind covalently to LPX and TPX
same,moles of oxidant required for total reaction,[10],two
same,equivalents of hydroperoxide required per mole of thione,[10]; hydroperoxides,2 equivalents
same,covalent binding to LPX,LPX [11],become covalently bound to LPX
"Cn1cc[nH]c1=S [MMI, 1-methylimidazole-2-thione]",suicide inhibition,LPX and TPX [12],suicide inhibitors
"CCOC(=O)n1ccn(C)c1=S [carbimazole, 1-carboxyethyl-3-methylimidazole-2-thione]",in vivo stability / conversion,[13],labile in vivo and is rapidly converted to methimazole
CCCc1cc(=O)[nH]c(=S)[nH]1 [propylthiouracil],suicide inhibition,LPX and TPX [12],suicide inhibitors
